Laboratory results from PubChem BioAssay AID2060513 (Molecular Pharmacology Branch, DTP, NCI, 2025).
Values belong to the molecule of their own block, whether it stands above or below them.

Test system: 299254-011-R-J1-PDC complex spheroids viability
Assay: Anticancer human tumor 299254-011-R-J1-PDC patient-derived melanoma cell line growth inhibition [GQUAD]
Details: for IC50: curve of first compound; for viability, T/C: stronger effect = lower value
Summary of the method: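 Tumor cells were grown as complex spheroids with HUVEC endothelial cells and mesenchymal stem cells as stroma. G-quadruplex stabilizers were combined with targeted agents over half-log dilutions from near the clinical Cmax, or from 10 microM.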

[1] = second compound 0.0316 µM, first compound 0.0316 µM
[2] = second compound 0.0316 µM, first compound 0.1 µM
[3] = second compound 0.0316 µM, first compound 0.316 µM
[4] = second compound 0.0316 µM, first compound 1 µM
[5] = second compound 0.0316 µM, first compound 3.16 µM
[6] = second compound 0.0316 µM, first compound 10 µM
[7] = second compound 0.1 µM, first compound 0.0316 µM
[8] = second compound 0.1 µM, first compound 0.1 µM
[9] = second compound 0.1 µM, first compound 0.316 µM
[10] = second compound 0.1 µM, first compound 1 µM
[11] = second compound 0.1 µM, first compound 3.16 µM
[12] = second compound 0.1 µM, first compound 10 µM
[13] = second compound 0.316 µM, first compound 0.0316 µM
[14] = second compound 0.316 µM, first compound 0.1 µM
[15] = second compound 0.316 µM, first compound 0.316 µM
[16] = second compound 0.316 µM, first compound 1 µM
[17] = second compound 0.316 µM, first compound 3.16 µM
[18] = second compound 0.316 µM, first compound 10 µM
[19] = second compound 1 µM, first compound 0.0316 µM
[20] = second compound 1 µM, first compound 0.1 µM
[21] = second compound 1 µM, first compound 0.316 µM
[22] = second compound 1 µM, first compound 1 µM
[23] = second compound 1 µM, first compound 3.16 µM
[24] = second compound 1 µM, first compound 10 µM
[25] = second compound 3.16 µM, first compound 0.0316 µM
[26] = second compound 3.16 µM, first compound 0.1 µM
[27] = second compound 3.16 µM, first compound 0.316 µM
[28] = second compound 3.16 µM, first compound 1 µM
[29] = second compound 3.16 µM, first compound 3.16 µM
[30] = second compound 3.16 µM, first compound 10 µM
[31] = second compound 10 µM, first compound 0.0316 µM
[32] = second compound 10 µM, first compound 0.1 µM
[33] = second compound 10 µM, first compound 0.316 µM
[34] = second compound 10 µM, first compound 1 µM
[35] = second compound 10 µM, first compound 3.16 µM
[36] = second compound 10 µM, first compound 10 µM
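Further: spheroids exposed to the agents for seven days before readout.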
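Wherever viability, T/C is given: percent viability relative to DMSO vehicle control wells = 100%.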

- IC50 (second compound 0.0316 µM): > 10000 nM
- IC50 (second compound 0.1 µM): 282 nM
- IC50 (second compound 0.316 µM): > 10000 nM
- IC50 (second compound 1 µM): 1000 nM
- IC50 (second compound 3.16 µM): 835 nM
- IC50 (second compound 10 µM): < 31.6 nM
Structure (SMILES): Nc1ccn(C2OC(CO)C(O)C2(F)F)c(=O)n1 (centres undefined) + Cc1cnc(CNC(=O)c2c(=O)c3ccc(N4CCCN(C)CC4)nc3n3c2sc2ccccc23)cn1
- viability, T/C [1]: 102%
- viability, T/C [2]: 76.5%
- viability, T/C [3]: 64.3%
- viability, T/C [4]: 44.7%
- viability, T/C [5]: 56.7%
- viability, T/C [6]: 68%
- viability, T/C [7]: 90.4%
- viability, T/C [8]: 72%
- viability, T/C [9]: 45.6%
- viability, T/C [10]: 48%
- viability, T/C [11]: 50.1%
- viability, T/C [12]: 46.7%
- viability, T/C [13]: 80.5%
- viability, T/C [14]: 78.8%
- viability, T/C [15]: 69%
- viability, T/C [16]: 56.1%
- viability, T/C [17]: 54.3%
- viability, T/C [18]: 70.3%
- viability, T/C [19]: 85.6%
- viability, T/C [20]: 87%
- viability, T/C [21]: 48.7%
- viability, T/C [22]: 44.5%
- viability, T/C [23]: 60.5%
- viability, T/C [24]: 58.8%
- viability, T/C [25]: 79.3%
- viability, T/C [26]: 69.3%
- viability, T/C [27]: 64.6%
- viability, T/C [28]: 42.9%
- viability, T/C [29]: 54.4%
- viability, T/C [30]: 44.6%
- viability, T/C [31]: 50%
- viability, T/C [32]: 24.9%
- viability, T/C [33]: 47.8%
- viability, T/C [34]: 49.9%
- viability, T/C [35]: 48.3%
- viability, T/C [36]: 0.4%

- IC50 (second compound 0.0316 µM): > 10000 nM
- IC50 (second compound 0.1 µM): > 10000 nM
- IC50 (second compound 0.316 µM): > 10000 nM
- IC50 (second compound 1 µM): > 10000 nM
- IC50 (second compound 3.16 µM): > 10000 nM
- IC50 (second compound 10 µM): 31.6 nM
Structure (SMILES): O=c1[nH]cc(F)c(=O)[nH]1 + Cc1cnc(CNC(=O)c2c(=O)c3ccc(N4CCCN(C)CC4)nc3n3c2sc2ccccc23)cn1
- viability, T/C [1]: 90.9%
- viability, T/C [2]: 86%
- viability, T/C [3]: 110%
- viability, T/C [4]: 84.3%
- viability, T/C [5]: 106%
- viability, T/C [6]: 106%
- viability, T/C [7]: 92.8%
- viability, T/C [8]: 92.1%
- viability, T/C [9]: 105%
- viability, T/C [10]: 88.1%
- viability, T/C [11]: 99.1%
- viability, T/C [12]: 98.5%
- viability, T/C [13]: 83.7%
- viability, T/C [14]: 123%
- viability, T/C [15]: 99.4%
- viability, T/C [16]: 88.5%
- viability, T/C [17]: 89.8%
- viability, T/C [18]: 105%
- viability, T/C [19]: 86.9%
- viability, T/C [20]: 78%
- viability, T/C [21]: 74.8%
- viability, T/C [22]: 92.4%
- viability, T/C [23]: 94.5%
- viability, T/C [24]: 91.3%
- viability, T/C [25]: 96%
- viability, T/C [26]: 76%
- viability, T/C [27]: 82.5%
- viability, T/C [28]: 84.2%
- viability, T/C [29]: 95.2%
- viability, T/C [30]: 91.3%
- viability, T/C [31]: 58.7%
- viability, T/C [32]: 16.9%
- viability, T/C [33]: 57.7%
- viability, T/C [34]: 65.6%
- viability, T/C [35]: 55.4%
- viability, T/C [36]: 2.68%
